{"source": "ChEMBL document CHEMBL1201862", "about": "“PubChem BioAssay data set” (2004)", "key": {"Escherichia coli [1]": {"system": "Escherichia coli", "assay": "microbe, parasite or virus in culture"}, "Leucine aminopeptidase": {"target": "T1, Leucine aminopeptidase (Plasmodium falciparum 3D7, UniProt Q8IL11)", "T1 sequence (Q8IL11 whole entry)": "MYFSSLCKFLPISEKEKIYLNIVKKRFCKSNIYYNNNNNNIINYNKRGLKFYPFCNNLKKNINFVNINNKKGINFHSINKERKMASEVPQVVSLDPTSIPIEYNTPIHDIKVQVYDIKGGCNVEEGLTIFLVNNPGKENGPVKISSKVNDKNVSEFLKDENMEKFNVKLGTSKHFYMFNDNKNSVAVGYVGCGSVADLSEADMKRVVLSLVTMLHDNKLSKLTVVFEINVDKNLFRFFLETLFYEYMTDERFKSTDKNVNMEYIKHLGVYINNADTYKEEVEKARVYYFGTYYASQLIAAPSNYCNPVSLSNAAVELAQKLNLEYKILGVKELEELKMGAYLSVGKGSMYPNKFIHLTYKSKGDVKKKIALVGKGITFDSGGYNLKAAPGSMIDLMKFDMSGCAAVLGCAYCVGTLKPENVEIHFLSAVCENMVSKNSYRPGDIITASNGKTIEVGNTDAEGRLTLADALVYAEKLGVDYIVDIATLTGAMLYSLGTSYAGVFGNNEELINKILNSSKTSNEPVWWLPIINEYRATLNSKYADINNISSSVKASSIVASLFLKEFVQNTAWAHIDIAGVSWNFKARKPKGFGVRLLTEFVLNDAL", "assay": "P. falciparum M17LAP inhibitors, primary screen, biochemical, fluorogenic H-Leu-NHMec substrate, 1536-well (AID 1619)", "format": "functional"}, "[2]": {"target": "T2, Heat shock factor protein 1 (Mus musculus, UniProt P38532)", "T2 sequence (P38532 whole entry)": "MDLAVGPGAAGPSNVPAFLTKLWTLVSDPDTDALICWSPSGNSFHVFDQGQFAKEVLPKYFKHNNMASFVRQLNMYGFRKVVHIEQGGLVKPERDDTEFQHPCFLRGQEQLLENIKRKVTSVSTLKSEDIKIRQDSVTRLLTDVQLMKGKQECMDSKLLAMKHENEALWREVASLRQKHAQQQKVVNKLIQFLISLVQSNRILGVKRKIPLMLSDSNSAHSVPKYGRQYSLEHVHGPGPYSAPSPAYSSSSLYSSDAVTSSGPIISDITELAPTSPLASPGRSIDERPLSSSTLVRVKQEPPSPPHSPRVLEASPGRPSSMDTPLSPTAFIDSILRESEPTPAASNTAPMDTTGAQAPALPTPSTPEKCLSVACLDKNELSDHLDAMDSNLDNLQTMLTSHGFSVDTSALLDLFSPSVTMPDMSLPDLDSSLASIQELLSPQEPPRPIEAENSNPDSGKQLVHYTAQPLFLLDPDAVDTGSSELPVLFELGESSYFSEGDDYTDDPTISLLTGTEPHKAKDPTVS", "assay": "decrease of HSF1-responsive luciferase luminescence – cell-based, NIH3T3, dose retest, confirmation (AID 2382);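 note: NIH3T3 fibroblasts with HSF1-driven luciferase reporter stressed by proteasome inhibitor MG132; luminescence from HSF1-driven luciferase expression after 8 hours of MG132 stress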", "format": "functional"}, "[3]": {"target": "T3, Microphthalmia-associated transcription factor (Homo sapiens, UniProt O75030)", "T3 sequence (O75030 whole entry)": "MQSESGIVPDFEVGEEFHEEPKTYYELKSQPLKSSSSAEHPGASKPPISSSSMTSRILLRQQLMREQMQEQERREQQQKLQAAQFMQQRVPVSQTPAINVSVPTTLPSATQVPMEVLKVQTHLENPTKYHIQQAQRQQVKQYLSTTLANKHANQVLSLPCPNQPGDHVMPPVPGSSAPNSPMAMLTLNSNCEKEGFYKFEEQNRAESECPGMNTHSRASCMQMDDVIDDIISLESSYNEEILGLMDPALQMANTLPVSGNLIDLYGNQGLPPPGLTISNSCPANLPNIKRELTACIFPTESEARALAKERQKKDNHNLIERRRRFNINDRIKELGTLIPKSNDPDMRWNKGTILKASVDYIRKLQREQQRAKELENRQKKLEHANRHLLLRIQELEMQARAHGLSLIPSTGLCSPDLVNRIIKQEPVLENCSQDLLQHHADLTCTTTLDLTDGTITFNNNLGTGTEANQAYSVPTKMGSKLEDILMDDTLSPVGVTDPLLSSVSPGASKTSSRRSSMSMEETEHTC", "assay": "reducers of TRPM1 reporter luminescence, concentration series – cell-based, SK-MEL-5, cherry-picked, set 3, MITF inhibitor project, dose response (AID 493073)", "format": "functional"}, "[4]": {"target": "T4, Luciferin 4-monooxygenase (Photuris pensylvanica, UniProt Q27757)", "T4 sequence (Q27757 whole entry)": "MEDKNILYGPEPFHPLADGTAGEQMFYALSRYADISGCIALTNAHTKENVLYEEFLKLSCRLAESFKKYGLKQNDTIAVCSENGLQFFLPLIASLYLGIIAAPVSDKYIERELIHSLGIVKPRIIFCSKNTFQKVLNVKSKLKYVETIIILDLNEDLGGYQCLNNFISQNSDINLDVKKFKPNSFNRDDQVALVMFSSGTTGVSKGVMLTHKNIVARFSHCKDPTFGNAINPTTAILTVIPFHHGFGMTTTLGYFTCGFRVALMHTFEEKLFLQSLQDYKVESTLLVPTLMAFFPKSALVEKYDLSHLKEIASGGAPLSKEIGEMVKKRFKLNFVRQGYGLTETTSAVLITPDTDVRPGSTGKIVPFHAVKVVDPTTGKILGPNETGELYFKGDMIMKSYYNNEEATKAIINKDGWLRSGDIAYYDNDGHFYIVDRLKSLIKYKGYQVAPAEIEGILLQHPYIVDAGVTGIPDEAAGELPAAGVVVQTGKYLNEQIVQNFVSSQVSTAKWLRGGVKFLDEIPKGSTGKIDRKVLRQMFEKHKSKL", "assay": "inhibition of Cell Titer Glo luciferase signal – biochemical, luminescence, cherry-picks, counter-screen for HSF-1 reporter inhibitor project, dose response (AID 588847)"}, "[5]": {"target": "T5, Long-chain-fatty-acid--AMP ligase FadD28 (Mycobacterium tuberculosis, UniProt P9WQ59)", "T5 sequence (P9WQ59 whole entry)": "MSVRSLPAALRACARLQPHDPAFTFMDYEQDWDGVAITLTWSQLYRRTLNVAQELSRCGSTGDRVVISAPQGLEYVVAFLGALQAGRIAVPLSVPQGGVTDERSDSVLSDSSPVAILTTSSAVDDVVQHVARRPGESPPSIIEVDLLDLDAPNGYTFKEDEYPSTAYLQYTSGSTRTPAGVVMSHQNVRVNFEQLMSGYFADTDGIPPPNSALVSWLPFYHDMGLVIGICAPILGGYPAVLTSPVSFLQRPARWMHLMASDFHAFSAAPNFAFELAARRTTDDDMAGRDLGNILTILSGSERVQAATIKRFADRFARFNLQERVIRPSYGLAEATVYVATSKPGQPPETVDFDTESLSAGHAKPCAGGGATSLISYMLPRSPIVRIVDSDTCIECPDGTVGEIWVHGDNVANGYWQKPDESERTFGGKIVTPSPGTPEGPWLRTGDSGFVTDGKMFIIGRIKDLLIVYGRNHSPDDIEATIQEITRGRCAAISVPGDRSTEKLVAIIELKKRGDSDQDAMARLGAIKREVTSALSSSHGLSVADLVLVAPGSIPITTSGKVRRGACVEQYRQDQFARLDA", "assay": "Fluorescence polarization aasay to screen for inhibitors that compete for the binding of FadD28 to a bisubstrate Measured in Biochemical System Using Plate Reader - 2147-01_Inhibitor_Dose_CherryPick_Activity.", "format": "functional, Mycobacterium tuberculosis H37Rv"}, "[6]": {"target": "T6, Rac GTPase-activating protein 1 (Homo sapiens, UniProt Q9H0H5)", "T6 sequence (Q9H0H5 whole entry)": "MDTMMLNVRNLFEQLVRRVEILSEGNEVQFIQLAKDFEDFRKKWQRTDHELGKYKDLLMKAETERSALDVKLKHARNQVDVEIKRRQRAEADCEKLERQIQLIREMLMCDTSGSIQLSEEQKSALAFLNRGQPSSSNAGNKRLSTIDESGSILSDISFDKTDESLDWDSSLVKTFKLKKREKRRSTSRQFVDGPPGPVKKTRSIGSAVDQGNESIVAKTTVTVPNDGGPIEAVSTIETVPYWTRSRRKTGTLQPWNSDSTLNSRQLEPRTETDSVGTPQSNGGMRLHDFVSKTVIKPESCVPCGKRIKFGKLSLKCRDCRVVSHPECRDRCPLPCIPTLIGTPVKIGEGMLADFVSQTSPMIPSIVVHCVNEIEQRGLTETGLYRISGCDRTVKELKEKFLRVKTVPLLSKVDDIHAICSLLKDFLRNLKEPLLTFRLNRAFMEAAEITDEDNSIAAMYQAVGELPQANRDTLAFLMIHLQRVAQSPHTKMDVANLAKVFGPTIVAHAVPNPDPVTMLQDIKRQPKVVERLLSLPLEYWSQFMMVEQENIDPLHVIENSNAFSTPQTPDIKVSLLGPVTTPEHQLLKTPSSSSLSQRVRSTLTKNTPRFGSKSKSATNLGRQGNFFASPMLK", "assay": "blockers of MgcRacGAP-driven Rac1 GTP hydrolysis – biochemical, ADP Hunter fluorescence, primary and confirmatory, confirmation (AID 624330)", "format": "functional"}, "Escherichia coli [7]": {"system": "Escherichia coli", "assay": "microbe, parasite or virus in culture", "remark": "listed apart in the source"}, "[8]": {"assay": "NIH-3T3 fibroblast cytotoxicity, dose response, cytotoxicity control, cell-based, fluorescence, Alamar Blue, secondary assay (AID 2327);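 note: NIH-3T3 mouse fibroblasts cultured with fluconazole at 8 µg/mL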", "format": "functional"}, "[9]": {"assay": "fluconazole-exposed Candida albicans growth modulators – fluorescence, retest, confirmation (AID 2467)", "format": "functional, cell-based"}, "[10]": {"target": "T7, Serine/threonine-protein phosphatase (Candida dubliniensis (strain CD36 / CBS 7987 / NCPF 3949 / NRRLY-17841) (Yeast), UniProt B9W6M3)", "T7 sequence (B9W6M3 whole entry)": "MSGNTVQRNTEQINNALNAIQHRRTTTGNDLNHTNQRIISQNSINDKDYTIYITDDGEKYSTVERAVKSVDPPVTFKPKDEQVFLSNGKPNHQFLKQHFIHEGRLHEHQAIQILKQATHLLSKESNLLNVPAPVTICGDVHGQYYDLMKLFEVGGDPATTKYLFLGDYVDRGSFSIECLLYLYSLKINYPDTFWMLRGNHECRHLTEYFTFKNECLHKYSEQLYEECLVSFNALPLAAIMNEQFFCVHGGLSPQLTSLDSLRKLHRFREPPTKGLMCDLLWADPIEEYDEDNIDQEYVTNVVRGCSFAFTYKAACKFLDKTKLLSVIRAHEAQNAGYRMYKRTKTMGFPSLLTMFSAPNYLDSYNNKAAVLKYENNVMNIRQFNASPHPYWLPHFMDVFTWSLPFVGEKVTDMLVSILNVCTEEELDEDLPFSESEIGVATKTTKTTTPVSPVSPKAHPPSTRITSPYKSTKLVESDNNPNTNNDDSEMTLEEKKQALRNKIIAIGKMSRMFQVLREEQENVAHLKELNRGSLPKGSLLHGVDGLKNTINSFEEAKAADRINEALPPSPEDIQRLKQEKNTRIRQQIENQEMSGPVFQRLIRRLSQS", "assay": "blockers of CaCl2-induced CDRE-lacZ signaling – S. cerevisiae, luminescence, secondary, dose response (AID 2388);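 note: yeast reporter cells carrying a calcineurin-responsive lacZ construct stimulated with calcium chloride; luminescent beta-galactosidase reporter signal in whole cells rather than isolated phosphatase activity; potency for inhibition where a drop in reporter signal means calcineurin blockade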", "format": "functional, cell-based"}, "[11]": {"target": "ATP-dependent molecular chaperone HSP82 (Candida albicans (strain WO-1) (Yeast), UniProt C4YTQ8)", "sequence (C4YTQ8 whole entry)": "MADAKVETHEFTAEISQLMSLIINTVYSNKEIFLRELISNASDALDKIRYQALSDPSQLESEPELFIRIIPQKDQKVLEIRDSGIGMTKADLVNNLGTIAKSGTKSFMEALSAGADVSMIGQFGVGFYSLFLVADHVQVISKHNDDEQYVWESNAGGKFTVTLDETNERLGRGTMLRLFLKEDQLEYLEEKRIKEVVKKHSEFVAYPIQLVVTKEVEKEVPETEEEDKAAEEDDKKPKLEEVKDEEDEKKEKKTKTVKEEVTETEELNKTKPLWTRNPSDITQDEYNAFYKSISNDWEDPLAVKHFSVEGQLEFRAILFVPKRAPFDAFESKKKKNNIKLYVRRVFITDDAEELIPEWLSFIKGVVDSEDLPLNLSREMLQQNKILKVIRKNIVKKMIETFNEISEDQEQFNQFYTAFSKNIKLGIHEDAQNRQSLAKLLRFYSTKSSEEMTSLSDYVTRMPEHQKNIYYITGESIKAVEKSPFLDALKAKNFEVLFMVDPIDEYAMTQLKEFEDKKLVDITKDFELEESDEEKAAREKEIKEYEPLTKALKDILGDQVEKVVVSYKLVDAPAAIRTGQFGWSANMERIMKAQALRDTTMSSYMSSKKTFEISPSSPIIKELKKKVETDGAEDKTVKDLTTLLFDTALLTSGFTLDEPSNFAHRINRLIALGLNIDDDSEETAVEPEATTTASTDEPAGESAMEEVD", "assay": "steroid-induced GRE reporter decrease in yeast – S. cerevisiae, luminescence, Hsp90 inhibitor project, dose response (AID 2400);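 note: beta-galactosidase luminescence from glucocorticoid response element reporter as proxy for Hsp90 function; inhibitor potency where signal loss means Hsp90 inhibition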", "format": "functional, cell-based"}}, "note": "Calls of active or inactive are those of the source.", "data": [{"smiles": "Cn1c(=O)oc2cc(S(=O)(=O)NCCN3CCCCCC3)ccc21", "values": [{"measurement": "AC50", "setting": "Escherichia coli [1]", "result": "24.2 µM (active)"}]}, {"smiles": "Cc1ccc(/C=N/Nc2ccc(C(=O)O)cc2)s1", "values": [{"measurement": "IC50", "setting": "Leucine aminopeptidase", "result": "20.4 µM (active)"}, {"measurement": "EC50", "setting": "[2]", "result": "< 0.16 µM (active)"}, {"measurement": "AC50", "setting": "[3]", "result": "3.3 µM (active)"}, {"measurement": "AC50", "setting": "[4]", "result": "0.721 µM (active)"}, {"measurement": "AC50", "setting": "[5]", "result": "37.8 µM (active)"}, {"measurement": "IC50", "setting": "[6]", "result": "89.2 µM (active)"}]}, {"smiles": "Cc1ccc(CNC(=O)COC(=O)c2cccnc2Cl)cc1", "values": [{"measurement": "AC50", "setting": "Escherichia coli [1]", "result": "29.3 µM (active)"}, {"measurement": "AC50", "setting": "Escherichia coli [7]", "result": "73.1 µM (active)"}]}, {"smiles": "CC(C)(C)OC(=O)NCCCCCNC(=O)c1[nH]cnc1C(=O)NC1CCN(C(=O)OC(C)(C)C)CC1", "values": [{"measurement": "AC50", "setting": "Escherichia coli [7]", "result": "235 µM (active)"}]}, {"smiles": "CCC(=O)O[C@]1(C(=O)CCl)[C@@H](C)C[C@H]2[C@@H]3CCC4=CC(=O)C=C[C@]4(C)[C@@]3(F)[C@@H](O)C[C@@]21C", "note": "[CLOBETASOL PROPIONATE]", "values": [{"measurement": "AC50", "setting": "[4]", "result": "> 52 µM (inactive)"}]}, {"smiles": "c1coc(CN2CNc3nc4ccccc4n3C2)c1", "values": [{"measurement": "AC50", "setting": "Escherichia coli [1]", "result": "79.4 µM (active)"}, {"measurement": "AC50", "setting": "Escherichia coli [7]", "result": "101 µM (active)"}]}, {"smiles": "N=C(Cc1ccccc1)NOC(=O)c1cccc2ccccc12", "values": [{"measurement": "EC50", "setting": "[8]", "result": "19.3 µM (active)"}, {"measurement": "EC50", "setting": "[9]", "result": "0.717 µM (active)"}, {"measurement": "EC50", "setting": "[10]", "result": "> 180 µM (inactive)"}, {"measurement": "EC50", "setting": "[11]", "result": "14 µM (active)"}]}]}
